US20240336654A1, “ANTIMICROBIAL PEPTIDOMIMETICS” (SPEXIS AG, priority 2021, published 2024)
Where a SMILES comes first, the peptide text is derived from it. Bridges are numbered along the chain shown (N, C = ends). [ ]: non-standard residue; d: D form. The star is where a group is joined. Val(Nα-amidino) = CC(C)[C@H](NC(=N)N)C(=O)*; Hyp = O=C(O)[C@@H]1C[C@@H](O)CN1; Cit = NC(=O)NCCC[C@H](N)C(=O)O; Pen = CC(C)(S)[C@H](N)C(=O)O; ΔPro = O=C(O)[C@@H]1C=CCN1; dDab = NCC[C@@H](N)C(=O)O; Dab = NCC[C@H](N)C(=O)O

Tests used:
Assay type in all cases: cell-based
[1] = system: Escherichia coli ATCC 25922; settings: ATCC 25922
Summary of the method: (§1)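 MICs were determined by CLSI broth microdilution in cation-adjusted Mueller-Hinton II broth with about 5×10^5 CFU/mL inoculum. Peptides were tested in two-fold serial dilutions with 0.002% polysorbate 80 final. MIC in μg/mL is the lowest concentration with no visible growth after 18-20 h at 35 °C.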

[2] = system: Klebsiella pneumoniae SSI3010; settings: SSI3010
Summary of the method: as §1

[3] = system: Escherichia coli MCR-1 Af 45; settings: MCR-1 Af 45
Summary of the method: as §1

[4] = system: human red blood cells (hRBC); settings: red cells of human, 1 h, 200 μg/mL
Summary of the method: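 Percent hemolysis derived from OD540 of supernatants relative to full lysis by 2.5% Triton X-100 (PBS baseline). Washed fresh human erythrocytes (20% v/v) were exposed to 200 μg/mL peptide for 1 h at 37 °C with shaking.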

Structure (SMILES) | Escherichia coli ATCC 25922 MIC [1] [µg/mL] | Klebsiella pneumoniae SSI3010 MIC [2] [µg/mL] | Escherichia coli MCR-1 Af45 MIC [3] [µg/mL] | Hemolysis at 0.2 g/L [4] [%]
CC[C@H](C)[C@H](NC(=O)[C@@H]1C=CCN1C(=O)[C@@H](NC(=N)N)C(C)C)C(=O)N[C@@H]1C(=O)N[C@@H](Cc2ccc(O)cc2)C(=O)N[C@@H](CO)C(=O)N[C@@H](CC(N)=O)C(=O)N[C@@H](CCCNC(=N)N)C(=O)N[C@@H](CCN)C(=O)N[C@@H]([C@@H](C)O)C(=O)N[C@H](CCN)C(=O)N[C@@H](CCCCN)C(=O)N[C@@H](CCN)C(=O)N[C@@H](CCN)C(=O)N[C@H](C(=O)N[C@@H](Cc2ccc(O)cc2)C(=O)O)CSSC1(C)C [Example 110, Gua-Val-Pro(3,4dehydro)-Ile-Pen-Tyr-Ser-Asn-Arg-Dab-Thr-^DDab-Lys-Dab-Dab-Cys-Tyr] ({Val(Nα-amidino)}-[ΔPro]I[Pen]YSNR[Dab]T[dDab]K[Dab][Dab]CY-OH; disulfide 3-14) | 0.0625 | 0.125 | 0.0625 | <1
CC[C@H](C)[C@H](NC(=O)[C@@H]1C[C@@H](O)CN1C(=O)[C@@H](N)C(C)C)C(=O)N[C@@H]1C(=O)N[C@@H](Cc2ccc(O)cc2)C(=O)N[C@@H](CO)C(=O)N[C@@H](CC(N)=O)C(=O)N[C@@H](CCCNC(=N)N)C(=O)N[C@@H](CC(N)=O)C(=O)N[C@@H]([C@@H](C)O)C(=O)N[C@H](CCN)C(=O)N[C@@H](CCCCN)C(=O)N[C@@H](CCN)C(=O)N[C@@H](CCN)C(=O)N[C@H](C(=O)N[C@@H](Cc2ccc(O)cc2)C(=O)O)CSSC1(C)C [Example 28, Val-Hyp-Ile-Pen-Tyr-Ser-Asn-Arg-Asn-Thr-^DDab-Lys-Dab-Dab-Cys-Tyr] (H-V[Hyp]I[Pen]YSNRNT[dDab]K[Dab][Dab]CY-OH; disulfide 4-15) | 0.25 | 0.5 | 0.25 | <1
CC[C@H](C)[C@H](NC(=O)[C@@H]1C[C@@H](O)CN1C(=O)[C@@H](NC(=N)N)C(C)C)C(=O)N[C@@H]1C(=O)N[C@@H](Cc2ccc(O)cc2)C(=O)N[C@@H]([C@@H](C)O)C(=O)N[C@@H](CC(N)=O)C(=O)N[C@@H](CCCNC(=N)N)C(=O)N[C@@H](CCCNC(N)=O)C(=O)N[C@@H]([C@@H](C)O)C(=O)N[C@H](CCN)C(=O)N[C@@H](CCCCN)C(=O)N[C@@H](CCN)C(=O)N[C@@H](CCN)C(=O)N[C@H](C(=O)N[C@@H](Cc2ccc(O)cc2)C(=O)O)CSSC1(C)C [Example 91, Gua-Val-Hyp-Ile-Pen-Tyr-Thr-Asn-Arg-Cit-Thr-^DDab-Lys-Dab-Dab-Cys-Y] ({Val(Nα-amidino)}-[Hyp]I[Pen]YTNR[Cit]T[dDab]K[Dab][Dab]CY-OH; disulfide 3-14) | 0.125 | 0.25 | 0.125 | <1
CC[C@H](C)[C@H](NC(=O)[C@@H]1C[C@@H](O)CN1C(=O)[C@@H](NC(=N)N)C(C)C)C(=O)N[C@@H]1C(=O)N[C@@H](Cc2ccc(O)cc2)C(=O)N[C@@H](CO)C(=O)N[C@@H](CC(N)=O)C(=O)N[C@@H](CCCNC(=N)N)C(=O)N[C@@H](CCN)C(=O)N[C@@H]([C@@H](C)O)C(=O)N[C@H](CCN)C(=O)N[C@@H](CCCNC(N)=O)C(=O)N[C@@H](CCN)C(=O)N[C@@H](CCN)C(=O)N[C@H](C(=O)N[C@@H](Cc2ccc(O)cc2)C(=O)O)CSSC1(C)C [Example 106, Gua-Val-Hyp-Ile-Pen-Tyr-Ser-Asn-Arg-Dab-Thr-^DDab-Cit-Dab-Dab-Cys-Tyr] ({Val(Nα-amidino)}-[Hyp]I[Pen]YSNR[Dab]T[dDab][Cit][Dab][Dab]CY-OH; disulfide 3-14) | 0.125 | 0.25 | 0.125 | <1
CC[C@H](C)[C@H](NC(=O)[C@@H]1C[C@@H](O)CN1C(=O)[C@@H](NC(=N)N)C(C)C)C(=O)N[C@@H]1C(=O)N[C@@H](Cc2ccc(O)cc2)C(=O)N[C@@H](CCN)C(=O)N[C@@H](CC(N)=O)C(=O)N[C@@H](CCCNC(=N)N)C(=O)N[C@@H](CCN)C(=O)N[C@@H]([C@@H](C)O)C(=O)N[C@H](CCN)C(=O)N[C@@H](CCN)C(=O)N[C@@H]([C@@H](C)O)C(=O)N[C@@H](CCN)C(=O)N[C@H](C(=O)N[C@@H](Cc2ccc(O)cc2)C(=O)O)CSSC1(C)C [Example 120, Gua-Val-Hyp-Ile-Pen-Tyr-Dab-Asn-Arg-Dab-Thr-^DDab-Dab-Thr-Dab-Cys-Tyr] ({Val(Nα-amidino)}-[Hyp]I[Pen]Y[Dab]NR[Dab]T[dDab][Dab]T[Dab]CY-OH; disulfide 3-14) | 0.125 | 0.125 | 0.0625 | <1
